Test results from patent US20250269043A1, “TARGETED BIFUNCTIONAL DEGRADERS” (YALE UNIVERSITY, priority 2019, published 2025).

Experiments:
[1] = biological target: human IgG (Alexa 488-labeled) (human); assay: cell-based or functional assay
[2] = test system: HepG2 cells; assay: DNP-AF3-mediated α-DNP antibody endocytosis by HepG2 cells (flow cytometry); type: cell-based, human; details: 40 nM DNP-AF3, 100 nM antibody; for effect of competitive binders on DNP-AF3-mediated α-DNP antibody endocytosis: ASF 2.07 μM, AF and GalNAc 1.25 mM, FIG. 105; for effect of endocytic pathway inhibitors on DNP-AF3-mediated α-DNP antibody endocytosis: FIG. 106
Experimental: The intracellular fluorescence of cells that were incubated at 37° C. with both fluorescently labeled α-DNP antibody and DNP-AF3 for a given amount of time was examined. Cells were then washed, removed from the plate with trypsin, and subjected to flow cytometry.
It was then determined if reagents which inhibit ternary complex formation inhibit endocytosis mediated by DNP-AF3.
Next, whether inhibitors of specific endocytic pathways inhibited α-DNP antibody endocytosis was determined (FIG. 106).

[3] = test system: HepG2 cells; assay: DNP-GN3-mediated endocytosis of fluorescently labeled α-DNP antibody by adherent HepG2 cells; type: cell-based, human; details: sodium azide and 2-deoxyglucose as combined treatment; FIG. 89
Experimental: It was next explored whether DNP-GN3 mediates the endocytosis of fluorescently labeled α-DNP antibody.
To explore the cellular mechanism of antibody uptake, cells were treated with chemical inhibitors of several endocytic pathways (FIG. 89).

[4] = test system: HepG2 cells; assay: MIF-GN3-mediated endocytosis of Alexa 488-labeled human MIF by HepG2 cells; details: for effect of endocytic pathway inhibitors on MIF-GN3-mediated MIF endocytosis: MIF 100 nM, MIF-GN3 200 nM, FIG. 132; for toxicity of endocytosis inhibitors to cells: HepG2 cells in the presence of MIF and MIF-GN3
Experimental: Human MIF protein was fluorescently labeled with Alexa 488 NHS ester, then incubated with HepG2 cells in the presence of varying levels of MIF-GN3.
The ability of MIF-GN3 to mediate MIF endocytosis over a wide range of target protein concentrations was assessed.
Next, inhibitors of various endocytic pathways were utilized to determine if MIF-GN3 mediates MIF endocytosis in a manner consistent with ASGPR (FIG. 132).

[5] = biological target: asialoglycoprotein receptor on the surface of immortalized human hepatocyte HepG2 cells (human) (UniProt P07306); assay: cell-based or functional assay
[6] = biological target: asialoglycoprotein receptor on the surface of immortalized human hepatocyte HepG2 cells (human) (UniProt P07306); assay: flow cytometry competition on HepG2 cells: ASOR against DNP-AF3 (40 nM)-mediated association of α-DNP antibody (100 nM) with ASGPR
[7] = test system: α-DNP antibody; assay: In vivo depletion of α-DNP antibody from serum in mice (ELISA); details: FIG. 95
Experimental: FIG. 94 illustrates that serum levels of α-DNP antibody decrease more rapidly following repeated treatment with DNP-GN3. Serum antibody levels were measured using an ELISA assay. Each experimental group contained three mice. Statistical differences in experiments involving in vivo depletion of α-DNP antibody were assessed by repeated measures two-way ANOVA with Tukey's tests for post-hoc comparison of simple effects between each of the treatment groups and PBS.
Single doses of DNP-GN3 were also found to be efficacious at mediating α-DNP antibody depletion, albeit less effectively than daily dosing (FIG. 96). […] Therefore, it was concluded that DNP-GN3 is able to mediate the depletion of a monoclonal antibody from serum, and functions across a wide range of target protein concentrations and dosing regimens.
DNP-GN3 was also found to be efficacious in depleting polyclonal α-DNP antibody from serum collected from mice immunized with DNP-keyhole limpet haemocyanin (KLH) (FIG. 97). […] Thus, the small molecule DNP-GN3 is not restricted in function to only monoclonal mouse antibodies, but is also effective at removing polyclonal α-DNP antibodies from circulation in mice.

[8] = biological target: T1, human MIF (Homo sapiens, UniProt P14174); assay: Depletion of human MIF from cell culture supernatant (sandwich ELISA); type: cell-based; details: 24 hours; FIG. 128B
T1 sequence (P14174 2-115 limits assumed): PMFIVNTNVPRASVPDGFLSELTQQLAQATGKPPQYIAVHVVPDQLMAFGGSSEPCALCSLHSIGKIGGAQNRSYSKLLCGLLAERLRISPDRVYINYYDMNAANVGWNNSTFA
Experimental: The ability of bifunctional MIF-binding molecules to mediate the depletion of human MIF from cell culture was investigated. In these assays, human MIF was present at a concentration of 100 nM, and a sandwich ELISA assay was utilized to measure the concentration of human MIF remaining in the cell culture supernatant. The closely related bifunctional molecules MIF-GN3, MIF-PEG2-GN3, and MIF-PEG4-GN3 were used, as well as the structurally dissimilar molecule MIF-NVS-PEG3-GN3. […] Based on the ease of its synthesis and its efficacy in this experiment, MIF-GN3 was utilized for further studies. It was next investigated whether the MIF inhibitor 3w mediates MIF depletion from cell culture supernatant. […] When cells were treated with 3w, no depletion of exogenous MIF protein was observed after 24 hours (FIG. 128B).
Bifunctional molecules containing optimized ASGPR-binding motifs are also capable of mediating MIF depletion from cell culture supernatant (FIG. 129). The MIF-binding molecule MIF-AF1, which contains only a single ASGPR-binding sugar, was not effective at mediating depletion of MIF from supernatant at any concentration tested. It is hypothesized that this is due to the compound's low predicted affinity for ASGPR (μM range). […] At a concentration of either 200 nM or 1 μM, MIF-AF2 mediated nearly 100%/o depletion of MLF from the cell culture supernatant after 48 hours. […] In contrast to these molecules, which utilize optimized synthetic ASGPR ligands, the GalNAc-based molecule MIF-GN3 mediated only 67.0% and 56.0% removal of MIF from supernatant after 48 hours at concentrations of 1 μM and 200 nM, respectively. […] At a concentration of 40 nM (4.0 pmol of molecule), MIF-AF3 mediates the removal of 83.2% of MIF present in the cell culture supernatant, or 8.32 pmol of human MIF protein. Therefore, it was concluded that under the conditions of this experiment, MIF-AF3 mediates the depletion of 2.08 molar equivalents of MIF protein.

[9] = test system: PC3 cells; assay: PC3 human prostate cancer cell tumor model in mice; type: in vivo; details: MIF-GN3 at 10 mpk; control arms DNP-GN3 and 3w; FIG. 138
Experimental: The ability of MIF-GN3 to mediate the depletion of MIF in a therapeutically relevant disease model was investigated. […] An experiment was conducted to determine whether the bifunctional molecule MIF-GN3 can deplete sufficient human MIF from serum to slow PC3 tumor growth. Mice were injected with an aliquot of PC3 cells, and the size of the resultant tumors as well as the levels of human MIF in serum were monitored over five weeks. […] Five weeks after the initial PC3 cell injection, the first of the mice reached maximal tumor size ([…]) and was sacrificed (FIG. 138). […] The decrease in human MIF levels mediated by MIF-GN3 is consistent with a mechanism of action in which MIF-GN3 mediates the depletion and degradation of circulating MIF protein. While the α-MIF antibody would not necessarily be expected to decrease the levels of human MIF, it is possible that the antibody mediates MIF neutralization in a manner which masks its signal as determined by ELISA. Alternatively, the α-MIF antibody may mediate depletion or degradation of huMIF by some endocytic mechanism. Another possible explanation is that the α-MIF antibody decrease serum levels of active human MIF to such an extent at early time points that PC3 cells proliferate much more slowly, and therefore fewer cells are actively secreting human MIF.
Mice were sacrificed when their tumor volumes reached 1000 mm^3. […] At this same time point, less than 25% of the mice in any other arm had survived.

[10] = biological target: T1, human MIF; assay: Depletion of injected recombinant human MIF from serum in mice; type: in vivo; design: injected into mice; details: control molecules injected along with human MIF; FIG. 136
Experimental: In vivo human MIF depletion experiments were undertaken to determine whether MIF-GN3 can mediate the depletion of injected recombinant human MIF from serum in mice. Mice were injected with five μg of the human MIF protein. In this experiment, one group of mice was also injected with a single 10 mpk dose of MLF-GN3 along with human MIF protein. It was observed that after four hours, the average level of human MIF in serum in the PBS-treated mice was 1.76 ng/mL (FIG. 134). In mice treated with 10 mpk MIF-GN3, however, the concentration of human MIF in serum was 0.68 ng/mL. One day after the initial injection, human MIF levels had reached background levels for both conditions. […] It was hypothesized that, due to the short half-life of human MIF in serum, investigating human MIF levels at earlier time points may be more informative.
Next, an experiment was performed to determine whether MIF-GN3 could enhance MIF clearance at time points earlier than four hours. Mice were coinjected with recombinant human MIF and 10 mpk MIF-GN3 via either i.p. or i.v. routes. For the PBS control arms, human MIF was injected with PBS. It was observed that in the absence of MIF-GN3, there was a spike in huMIF levels in circulation after 30 minutes (FIG. 135). In the presence of MIF-GN3, however, levels of MIF protein remained low at 30 minutes and no spike in its concentration was observed. By two hours, the levels of human MIF in circulation decreased to background levels.
In a further experiment, whether an inhibitor of the MIF protein (3w) is able to mediate the protein's depletion from serum was determined. A bifunctional molecule that mediates the depletion of α-DNP antibody from serum was also assayed as a negative control. Neither of these molecules was expected to mediate the formation of a ternary complex between human MIF protein and ASGPR.

asialoglycoprotein receptor on the surface of immortalized human hepatocyte HepG2 cells (human), sequence (P07306 whole entry, chain 1 of 2): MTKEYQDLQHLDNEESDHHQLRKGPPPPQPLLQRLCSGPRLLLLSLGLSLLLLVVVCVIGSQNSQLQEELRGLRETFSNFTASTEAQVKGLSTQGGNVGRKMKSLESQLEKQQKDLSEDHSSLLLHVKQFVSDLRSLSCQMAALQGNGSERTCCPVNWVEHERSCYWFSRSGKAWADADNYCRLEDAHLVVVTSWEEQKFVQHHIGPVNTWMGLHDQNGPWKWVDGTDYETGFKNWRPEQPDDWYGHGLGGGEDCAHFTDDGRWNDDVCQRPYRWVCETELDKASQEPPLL
asialoglycoprotein receptor on the surface of immortalized human hepatocyte HepG2 cells (human), sequence (P07307 whole entry, chain 2 of 2, further chain): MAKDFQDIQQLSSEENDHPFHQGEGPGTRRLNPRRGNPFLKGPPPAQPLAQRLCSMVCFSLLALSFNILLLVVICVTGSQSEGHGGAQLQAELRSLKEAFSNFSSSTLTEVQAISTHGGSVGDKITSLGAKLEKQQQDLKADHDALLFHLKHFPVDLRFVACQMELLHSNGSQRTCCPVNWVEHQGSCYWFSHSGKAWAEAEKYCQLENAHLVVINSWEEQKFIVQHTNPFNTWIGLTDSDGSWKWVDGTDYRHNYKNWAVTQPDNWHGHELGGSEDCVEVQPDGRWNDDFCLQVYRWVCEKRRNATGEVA

Compound | effect of endocytic pathway inhibitors on DNP-AF3-mediated α-DNP antibody endocytosis [2] | effect of endocytic pathway inhibitors on intracellular fluorescence (DNP-GN3-mediated uptake) [3] | effect of endocytic pathway inhibitors on MIF-GN3-mediated MIF endocytosis [4] | also measured
FcIII-BCN-GN3 (peptide) |  |  |  | uptake of human IgG by HepG2 cells; most effective concentration of FcIII-BCN-GN3 [1]: 1 µM
CC(=O)N[C@H]1C(O)O[C@H](CO)[C@H](O)[C@@H]1O (some centres unmarked) [GalNAc, N-acetylgalactosamine] |  |  |  | effect of competitive binders on DNP-AF3-mediated α-DNP antibody endocytosis [2]: significantly decreased
C=C1[C@@H](C)[C@H]2[C@H](Cc3ccccc3)NC(=O)[C@]23[C@H](OC(C)=O)/C=C/[C@@](C)(O)C(=O)[C@@H](C)C/C=C/[C@H]3[C@@H]1O [CytD] | non-significant decrease |  |  | 
C[C@@H]1[C@H](O)[C@@H](C)/C=C/C=C/CC/C=C/C=C/C=C/C=C/C(O[C@H]2O[C@H](C)[C@@H](O)[C@H](N)[C@@H]2O)CC2O[C@](O)(CC(O)C(O)CCC(O)CC(O)CC(O)CC(=O)O[C@H]1C)CC(O)C2C(=O)O (some centres unmarked) [nystatin, Nystatin] | did not significantly decrease | did not significantly decrease | did not decrease | 
asialoorosomucoid (ligand) |  |  |  | mean fluorescence of the cell population (DNP-AF3-mediated α-DNP antibody endocytosis, HepG2, flow cytometry); about 1.31e6 without inhibitor (mean fluorescence) [5]: 466000; percent decrease of ternary complex formation at 2.38 µM ASOR [6]: 70%
O=C(CCOCC(COCCC(=O)NCCOCCOCCO)(COCCC(=O)NCCOCCOCCO)NC(=O)CNC(=O)COCCOCCOCCNc1ccc([N+](=O)[O-])cc1[N+](=O)[O-])NCCOCCOCCO [DNP-OH3] |  |  |  | antibody depletion from serum after negative control compound [7]: No accelerated antibody depletion; effect of competitive binders on DNP-AF3-mediated α-DNP antibody endocytosis [2]: decreased to near-background levels
COc1ccc2c(c1)c(CC(=O)O)c(C)n2C(=O)c1ccc(Cl)cc1 [indomethacin, Indomethacin] | did not significantly decrease |  | did not decrease | 
N=C(N)NC(=O)c1nc(Cl)c(N)nc1N [amiloride, Amiloride] | decrease in cellular fluorescence | did not significantly decrease | did not impact cellular fluorescence significantly | 
O=c1c(-c2ccc(O)cc2)coc2cc(O)cc(O)c12 [genistein, Genistein] | did not significantly decrease |  |  | toxicity of endocytosis inhibitors to cells [4]: toxic
Oc1ccc(-n2cc(-c3ccc4cc(OCCOCCN5CCOCC5)ccc4n3)nn2)cc1F [Compound 3w] |  |  |  | depletion of exogenous MIF protein from cell culture supernatant [8]: no depletion; tumor growth [9]: not found to decrease tumor growth; human MIF concentration in serum compared to the PBS control [10]: no significant decreases
C=C1[C@@H](C)[C@H]2[C@H](Cc3ccccc3)NC(=O)[C@]23[C@H](OC(C)=O)/C=C/[C@@](C)(O)C(=O)[C@@H](C)C/C=C/[C@H]3[C@@H]1O [cytochalasin D] |  | did not significantly decrease |  | toxicity of endocytosis inhibitors to cells [4]: toxic
O=CC[C@@H](O)[C@H](O)[C@H](O)CO [2-deoxyglucose] | significant decrease | significantly decreased | decreased significantly | 
FcIII-GN3 (oxidized cyclized form) (peptide) |  |  |  | uptake of Alexa 488-labeled human IgG by HepG2 cells; concentration of FcIII-GN3 giving maximal uptake [1]: 200 nM
